Experimental data from publication PMC6700223 (Frontiers in Microbiology, 2019).

Molecular target: HR1-1 peptide (HR1 domain of LASV GP2) (Lassa virus, UniProt P08669)
Assay: biochemical
Type: binding

HR1-1 peptide (HR1 domain of LASV GP2), sequence (P08669 296-345 limits assumed): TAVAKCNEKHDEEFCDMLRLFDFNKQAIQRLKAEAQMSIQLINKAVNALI

Question: Which “Binding to HR1-1 peptide (in words)” value does the source give for `CC[C@H](C)[C@H](NC(=O)[C@H](CC(=O)O)NC(=O)[C@H](CC(=O)O)NC(=O)[C@H](CO)NC(=O)[C@H](Cc1ccccc1)NC(=O)[C@H](Cc1c[nH]cn1)NC(=O)[C@@H](NC(=O)[C@H](CCC(=O)O)NC(=O)[C@H](CC(N)=O)NC(=O)[C@H](CC(C)C)NC(=O)[C@H](Cc1ccc(O)cc1)NC(=O)[C@@H](N)CO)[C@@H](C)O)C(=O)N[C@@H](CCC(=O)O)C(=O)N[C@@H](CCC(N)=O)C(=O)N[C@@H](CCC(N)=O)C(=O)N[C@@H](C)C(=O)N[C@@H](CC(=O)O)C(=O)N[C@@H](CC(N)=O)C(=O)N[C@@H](CCSC)C(=O)N[C@H](C(=O)N[C@H](C(=O)N[C@@H](CCC(=O)O)C(=O)N[C@@H](CCSC)C(=O)N[C@@H](CC(C)C)C(=O)N[C@@H](CCC(N)=O)C(=O)N[C@@H](CCCCN)C(=O)N[C@@H](CCC(=O)O)C(=O)N[C@@H](Cc1ccc(O)cc1)C(=O)N[C@@H](CCSC)C(=O)N[C@@H](CCC(=O)O)C(=O)N[C@@H](CCCNC(=N)N)C(=O)N[C@@H](CCC(N)=O)C(=O)NCC(=O)N[C@@H](CCCCN)C(=O)N[C@H](C(=O)N1CCC[C@H]1C(=O)N[C@@H](CC(C)C)C(=O)O)[C@@H](C)O)[C@@H](C)O)[C@@H](C)CC` [HR2-2] here?
Answer: strongly bind

Question: What about the Response (concentration 3.75 μM) of the same compound?
Answer: 0.0341 nm

Question: And the Response (concentration 7.5 μM)?
Answer: 0.0743 nm

Question: And the Response (concentration 15 μM)?
Answer: 0.0958 nm

Question: What about the Response (concentration 30 μM) of the same compound?
Answer: 0.119 nm

Question: What does the source list for `CC[C@H](C)[C@H](NC(=O)[C@H](CC(=O)O)NC(=O)[C@H](CC(=O)O)NC(=O)[C@H](CO)NC(=O)[C@H](Cc1ccccc1)NC(=O)[C@H](Cc1c[nH]cn1)NC(=O)[C@@H](N)[C@@H](C)O)C(=O)N[C@@H](CCC(=O)O)C(=O)N[C@@H](CCC(N)=O)C(=O)N[C@@H](CCC(N)=O)C(=O)N[C@@H](C)C(=O)N[C@@H](CC(=O)O)C(=O)N[C@@H](CC(N)=O)C(=O)N[C@@H](CCSC)C(=O)N[C@H](C(=O)N[C@H](C(=O)N[C@@H](CCC(=O)O)C(=O)N[C@@H](CCSC)C(=O)N[C@@H](CC(C)C)C(=O)N[C@@H](CCC(N)=O)C(=O)N[C@@H](CCCCN)C(=O)N[C@@H](CCC(=O)O)C(=O)N[C@@H](Cc1ccc(O)cc1)C(=O)N[C@@H](CCSC)C(=O)N[C@@H](CCC(=O)O)C(=O)O)[C@@H](C)O)[C@@H](C)CC` [HR2-3]?
Answer: kon: 1420 M⁻¹ s⁻¹; koff (read-out: Kdis): 0.0823 s⁻¹
